Data: patent publication US9499519B2, “Fused pyrimidine compounds and use thereof” (Medivation Technologies, Inc., priority 2012, dated 2016)
One block for each compound: values may come before it.

Legend:
[1] = target: T1, IGF-1R (Homo sapiens, UniProt P08069); assay: In vitro IGF-1R enzymatic assay (ADP-Glo kinase assay); assay type: biochemical; details: activated IGF-1R
T1 construct: purchased Millipore 14-802
Procedure: (§1) IC50 values of the compounds of the invention against IGF-1R and IR were measured in vitro using an ADP-Glo kinase assay Kit (Promega). […] Kinase reactions in both assays were conducted at 30° C. for 20 min with increasing concentrations of compounds of the invention.
Additional compounds of the invention were screened against activated IGF-1R.

[2] = target: TRKC(NTRK3) (Homo sapiens, UniProt Q16288); assay: Caliper kinase assay: TRKC (NTRK3); details: Trk C, 0.01 μM
Procedure: (§4) The compound was tested at concentrations of 1.0×10^−8 and 1.0×10^−9 M in the RapidKinase192™ panel in duplicate. […] The screening was performed using the Caliper EZReader2, a 4-sipper LabChip, and ProfilerPro Kinase Selectivity Assay Kits 1 and 2. The assay measures the conversion of a fluorescent peptide substrate to a phosphorylated product. Briefly, the reaction mixture was introduced through a capillary sipper onto the microfluidic chip, where the substrate and product were electrophoretically separated and detected by laser-induced fluorescence. The time-dependent fluorescence signal indicates the extent of the reaction.
(§5) The kinases tested were AurA, AurB, AurC, AXL, FAK2, IGF1R, InsR, Mer, MET, Trk B and Trk C.
(§6) The assays were conducted using the Caliper LabChip 3000 and a 12-sipper LabChip as described above.

[3] = target: T2, IR (Homo sapiens, UniProt P06213); assay: In vitro IR enzymatic assay (ADP-Glo kinase assay); assay type: biochemical; details: activated IR
T2 construct: purchased Millipore 14-803
Procedure: as §1
Additional compounds of the invention were screened against activated IR.

[4] = target: T3, AXL (Homo sapiens, UniProt P30530); assay: Caliper kinase assay: AXL; details: 0.01 μM
T3 sequence (P30530 26-894): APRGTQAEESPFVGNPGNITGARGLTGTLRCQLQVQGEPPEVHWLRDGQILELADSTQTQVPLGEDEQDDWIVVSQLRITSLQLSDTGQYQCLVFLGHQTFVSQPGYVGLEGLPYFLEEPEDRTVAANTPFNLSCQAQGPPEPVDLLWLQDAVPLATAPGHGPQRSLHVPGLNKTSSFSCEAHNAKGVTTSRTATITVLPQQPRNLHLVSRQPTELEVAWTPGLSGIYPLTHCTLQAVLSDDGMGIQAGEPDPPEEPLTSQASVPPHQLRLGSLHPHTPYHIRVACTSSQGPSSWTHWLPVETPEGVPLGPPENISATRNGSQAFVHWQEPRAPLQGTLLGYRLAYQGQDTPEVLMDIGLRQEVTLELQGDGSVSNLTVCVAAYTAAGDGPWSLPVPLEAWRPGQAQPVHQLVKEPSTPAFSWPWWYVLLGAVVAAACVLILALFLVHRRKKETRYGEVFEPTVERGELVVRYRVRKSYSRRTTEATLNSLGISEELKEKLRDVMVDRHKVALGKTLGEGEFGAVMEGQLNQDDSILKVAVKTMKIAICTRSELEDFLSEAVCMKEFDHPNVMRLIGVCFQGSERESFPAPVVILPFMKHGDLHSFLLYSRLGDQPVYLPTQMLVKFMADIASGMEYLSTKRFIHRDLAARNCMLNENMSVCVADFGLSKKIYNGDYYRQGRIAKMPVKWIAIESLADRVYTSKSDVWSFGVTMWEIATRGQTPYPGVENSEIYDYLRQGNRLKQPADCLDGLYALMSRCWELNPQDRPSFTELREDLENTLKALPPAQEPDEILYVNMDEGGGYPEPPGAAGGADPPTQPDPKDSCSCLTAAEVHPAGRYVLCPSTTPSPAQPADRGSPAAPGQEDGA
Procedure: as §4, §5, §6

[5] = target: NTRK2(TRKB) (Homo sapiens, UniProt Q16620); assay: Caliper kinase assay: NTRK2 (TRKB); details: Trk B, 0.01 μM
Procedure: as §4, §5, §6

[6] = target: PYK2 (Homo sapiens, UniProt Q14289); assay: Caliper kinase assay: PYK2 (called FAK2); details: FAK2, 0.01 μM
Procedure: as §4, §5, §6

[7] = tested on: Akt phosphorylation induced by IGF-1R; assay: Western blot analysis of Akt phosphorylation induced by IGF-1 in HT-29 cells; assay type: cell-based, Human; details: for Levels of phosphorylated AKT in treated cells (pAKT/actin): HT-29 cells, IGF-1; for p-AKT relative to levels with 0.1 nM compound: Table B2 lower part; for Normalized phosphorylated AKT (relative to actin) levels relative to 0.1 nM compound treatment: Table B2 upper part; for pAKT relative to 0.1 nM compound: derivatives of Cpd. No. 8b
Summary of the method: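 Phospho-Akt assessed by western blot in serum-depleted (24 h) human colon carcinoma HT-29 cells. Compounds applied for 2 h at 0.1–100 (0.1, 1, 10, 100); vehicle DMSO and 10 ng/mL IGF-1 served as controls. Protein in cleared lysates measured by BCA assay.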

[8] = target: T4, c-Mer (Homo sapiens, UniProt Q12866); assay: HotSpot kinase assay: c-Mer; assay type: biochemical; details: 100 nM compound, read-out: % Enzyme Inhibition @ 100 nM c-MER
T4 sequence (Q12866 21-999): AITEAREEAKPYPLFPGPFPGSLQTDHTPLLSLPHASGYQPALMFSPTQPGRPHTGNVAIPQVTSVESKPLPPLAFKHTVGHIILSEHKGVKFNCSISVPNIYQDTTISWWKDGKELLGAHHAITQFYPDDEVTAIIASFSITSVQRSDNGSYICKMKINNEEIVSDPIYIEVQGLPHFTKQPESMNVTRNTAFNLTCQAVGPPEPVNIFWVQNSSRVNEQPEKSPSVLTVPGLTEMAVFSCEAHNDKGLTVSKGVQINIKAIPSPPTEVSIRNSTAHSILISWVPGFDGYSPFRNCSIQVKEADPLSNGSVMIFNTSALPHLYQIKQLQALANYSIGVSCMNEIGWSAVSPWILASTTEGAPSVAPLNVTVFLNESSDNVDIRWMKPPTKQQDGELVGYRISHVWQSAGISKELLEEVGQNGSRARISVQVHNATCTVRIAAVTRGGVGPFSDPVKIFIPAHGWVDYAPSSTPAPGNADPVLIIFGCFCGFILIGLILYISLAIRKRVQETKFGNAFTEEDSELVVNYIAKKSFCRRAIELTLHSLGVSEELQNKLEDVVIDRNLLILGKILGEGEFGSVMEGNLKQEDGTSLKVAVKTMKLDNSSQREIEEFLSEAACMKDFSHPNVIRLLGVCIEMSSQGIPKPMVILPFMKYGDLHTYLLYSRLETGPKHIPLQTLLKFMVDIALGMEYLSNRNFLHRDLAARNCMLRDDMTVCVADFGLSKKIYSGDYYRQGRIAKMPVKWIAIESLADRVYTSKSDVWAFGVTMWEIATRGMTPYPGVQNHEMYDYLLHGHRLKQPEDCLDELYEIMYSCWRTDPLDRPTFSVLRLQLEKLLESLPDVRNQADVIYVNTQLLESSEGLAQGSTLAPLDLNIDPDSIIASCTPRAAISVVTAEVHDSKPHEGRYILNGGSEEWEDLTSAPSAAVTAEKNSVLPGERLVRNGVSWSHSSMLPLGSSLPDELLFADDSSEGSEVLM
Procedure: (§2) Kinase assays were performed using additional compounds against a panel of 4 kinases: AXL; c-Met; c-Mer; and Trk C. Each compound was tested at a concentration of […] in single duplicate mode against the 4 kinases. Compounds were prepared as 10 mM stock solutions in DMSO prior to use in the assay. […] IC50 values and curve fits were obtained using Prism (GraphPad Software).
(§3) The screening was performed using the “HotSpot” assay platform. The assay measures the conversion of a peptide substrate to ^33P-labelled phosphorylated product. Briefly, specific kinase/substrate pairs along with required cofactors were prepared in reaction buffer. Specifically, the substrate was prepared in reaction buffer (20 mM Hepes, pH 7.5; 10 mM MgCl2; 1 mM EGTA; 0.02% Brij35; 0.02 mg/mL BSA; 0.1 mM Na3VO4; 2 mM DTT; 1% DMSO), followed by delivery of any required cofactor to the resulting substrate solution. The corresponding kinase was delivered into the substrate solution and the reaction mixture was mixed gently. Compound was delivered into the reaction mixture, followed 15-20 minutes later by addition of a mixture of ATP (Sigma, St. Louis Mo.) and ^33P ATP (specific activity 0.01 μCi/μL final; Perkin Elmer, Waltham, Mass.) to a final concentration of 10 μM-30 μM to initiate the reaction. […] The percent of enzyme inhibition was calculated based on the percent of remaining kinase activity.

[9] = target: c-Met (Homo sapiens, UniProt P08581); assay: HotSpot kinase assay: c-Met; assay type: biochemical; details: 100 nM compound, read-out: % Enzyme Inhibition @ 100 nM c-MET
Procedure: as §2, §3

[10] = target: Trk C (Homo sapiens, UniProt Q16288); assay: HotSpot kinase assay: Trk C; assay type: biochemical; details: 100 nM compound; HotSpot; read-out: % Enzyme Inhibition @ 100 nM Trk C
Procedure: Each compound was tested at a concentration of 0.1 μM in single duplicate mode against the 3 kinases. Compounds were prepared as 10 mM stock solutions in DMSO prior to use in the assay. […] IC50 values and curve fits were obtained using Prism (GraphPad Software).
as §3, §2

[11] = target: T3, AXL; assay: HotSpot kinase assay: AXL; assay type: biochemical; details: 100 nM compound, read-out: % Enzyme Inhibition @ 100 nM AXL
Procedure: as §2, §3

T2 sequence (P06213 28-1382): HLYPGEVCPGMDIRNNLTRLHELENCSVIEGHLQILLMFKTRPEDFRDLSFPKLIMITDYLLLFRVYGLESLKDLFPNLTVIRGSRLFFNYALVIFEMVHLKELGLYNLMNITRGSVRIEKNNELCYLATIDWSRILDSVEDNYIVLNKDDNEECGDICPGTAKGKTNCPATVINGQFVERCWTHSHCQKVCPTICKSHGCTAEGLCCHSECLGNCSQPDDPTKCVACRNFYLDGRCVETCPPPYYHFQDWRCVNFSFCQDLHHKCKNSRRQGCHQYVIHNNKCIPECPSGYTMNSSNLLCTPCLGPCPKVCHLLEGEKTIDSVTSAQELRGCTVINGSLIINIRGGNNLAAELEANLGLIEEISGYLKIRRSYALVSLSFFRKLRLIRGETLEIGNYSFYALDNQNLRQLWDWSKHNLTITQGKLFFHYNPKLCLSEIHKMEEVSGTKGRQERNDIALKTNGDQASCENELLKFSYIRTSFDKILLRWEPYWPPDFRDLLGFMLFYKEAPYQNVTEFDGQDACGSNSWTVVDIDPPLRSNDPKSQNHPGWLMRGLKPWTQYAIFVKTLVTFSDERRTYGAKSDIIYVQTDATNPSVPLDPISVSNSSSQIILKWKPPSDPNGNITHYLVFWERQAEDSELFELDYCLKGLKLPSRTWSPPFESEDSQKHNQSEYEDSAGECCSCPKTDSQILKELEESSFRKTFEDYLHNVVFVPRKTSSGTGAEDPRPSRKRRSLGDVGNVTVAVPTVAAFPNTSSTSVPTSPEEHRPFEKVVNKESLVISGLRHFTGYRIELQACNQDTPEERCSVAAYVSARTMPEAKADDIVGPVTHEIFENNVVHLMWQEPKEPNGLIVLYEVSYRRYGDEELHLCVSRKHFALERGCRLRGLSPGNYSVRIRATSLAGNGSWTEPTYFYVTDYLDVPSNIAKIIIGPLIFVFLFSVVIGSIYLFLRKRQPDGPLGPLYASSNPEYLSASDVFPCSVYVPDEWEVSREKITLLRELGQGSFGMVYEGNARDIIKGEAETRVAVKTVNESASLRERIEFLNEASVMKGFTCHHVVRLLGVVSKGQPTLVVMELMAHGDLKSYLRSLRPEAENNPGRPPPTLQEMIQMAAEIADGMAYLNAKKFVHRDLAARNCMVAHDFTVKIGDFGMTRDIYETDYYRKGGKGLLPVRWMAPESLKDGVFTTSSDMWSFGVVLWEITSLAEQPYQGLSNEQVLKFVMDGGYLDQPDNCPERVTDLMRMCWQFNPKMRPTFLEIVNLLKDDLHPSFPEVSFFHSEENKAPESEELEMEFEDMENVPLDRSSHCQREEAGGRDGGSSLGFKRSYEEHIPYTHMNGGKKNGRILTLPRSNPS
T1 sequence (P08069 31-1367): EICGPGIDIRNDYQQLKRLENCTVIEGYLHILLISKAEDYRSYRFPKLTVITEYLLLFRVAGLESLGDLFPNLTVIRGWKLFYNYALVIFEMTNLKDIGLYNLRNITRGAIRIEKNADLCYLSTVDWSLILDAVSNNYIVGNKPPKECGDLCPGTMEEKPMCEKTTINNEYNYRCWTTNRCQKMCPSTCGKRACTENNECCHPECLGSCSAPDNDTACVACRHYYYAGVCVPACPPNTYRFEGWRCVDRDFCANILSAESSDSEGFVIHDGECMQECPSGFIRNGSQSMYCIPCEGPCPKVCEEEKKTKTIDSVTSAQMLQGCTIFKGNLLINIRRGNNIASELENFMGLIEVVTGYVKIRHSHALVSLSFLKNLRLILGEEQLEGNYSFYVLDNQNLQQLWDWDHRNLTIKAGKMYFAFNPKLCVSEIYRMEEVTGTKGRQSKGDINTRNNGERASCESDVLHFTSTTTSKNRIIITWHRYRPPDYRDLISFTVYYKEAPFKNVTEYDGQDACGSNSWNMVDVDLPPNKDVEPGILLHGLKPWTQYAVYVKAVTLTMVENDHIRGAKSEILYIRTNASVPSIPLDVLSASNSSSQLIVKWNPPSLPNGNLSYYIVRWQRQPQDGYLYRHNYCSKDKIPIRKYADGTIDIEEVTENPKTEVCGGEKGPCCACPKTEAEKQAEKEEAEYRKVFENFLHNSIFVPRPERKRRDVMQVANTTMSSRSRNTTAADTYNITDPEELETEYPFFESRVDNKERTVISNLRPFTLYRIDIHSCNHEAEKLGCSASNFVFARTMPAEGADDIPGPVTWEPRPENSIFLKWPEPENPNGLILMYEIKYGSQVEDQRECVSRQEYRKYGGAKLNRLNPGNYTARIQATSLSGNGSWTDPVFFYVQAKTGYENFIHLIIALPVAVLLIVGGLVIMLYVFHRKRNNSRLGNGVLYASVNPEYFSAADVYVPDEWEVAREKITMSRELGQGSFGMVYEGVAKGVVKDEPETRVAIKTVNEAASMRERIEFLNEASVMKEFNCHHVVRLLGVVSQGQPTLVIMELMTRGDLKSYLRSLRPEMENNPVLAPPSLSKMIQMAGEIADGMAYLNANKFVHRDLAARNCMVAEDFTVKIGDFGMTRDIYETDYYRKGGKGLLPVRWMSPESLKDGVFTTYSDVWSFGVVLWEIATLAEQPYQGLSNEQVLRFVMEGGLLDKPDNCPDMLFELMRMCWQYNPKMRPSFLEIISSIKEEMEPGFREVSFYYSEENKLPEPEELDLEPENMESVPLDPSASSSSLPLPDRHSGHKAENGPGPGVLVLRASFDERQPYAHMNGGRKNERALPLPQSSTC
NTRK2(TRKB), sequence (Q16620 32-822): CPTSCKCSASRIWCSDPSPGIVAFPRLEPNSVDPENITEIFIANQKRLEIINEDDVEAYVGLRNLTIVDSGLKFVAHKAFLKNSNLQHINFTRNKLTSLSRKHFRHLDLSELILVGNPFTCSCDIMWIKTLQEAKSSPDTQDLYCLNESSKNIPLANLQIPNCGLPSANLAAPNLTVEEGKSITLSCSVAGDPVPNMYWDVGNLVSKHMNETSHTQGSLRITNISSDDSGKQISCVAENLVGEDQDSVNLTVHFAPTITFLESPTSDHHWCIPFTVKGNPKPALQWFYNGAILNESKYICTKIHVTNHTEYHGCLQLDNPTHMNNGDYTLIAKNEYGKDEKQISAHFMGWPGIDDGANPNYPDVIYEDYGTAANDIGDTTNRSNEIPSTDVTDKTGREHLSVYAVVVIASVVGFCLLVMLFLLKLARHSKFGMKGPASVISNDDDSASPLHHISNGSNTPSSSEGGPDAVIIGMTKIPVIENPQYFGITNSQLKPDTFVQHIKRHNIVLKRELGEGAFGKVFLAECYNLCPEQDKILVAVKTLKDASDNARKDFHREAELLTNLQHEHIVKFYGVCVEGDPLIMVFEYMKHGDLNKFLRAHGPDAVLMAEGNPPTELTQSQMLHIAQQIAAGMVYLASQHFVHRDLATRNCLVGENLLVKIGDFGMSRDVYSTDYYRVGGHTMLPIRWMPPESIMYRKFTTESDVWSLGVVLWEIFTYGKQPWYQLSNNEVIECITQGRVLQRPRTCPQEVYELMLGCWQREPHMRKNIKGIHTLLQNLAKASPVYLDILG
PYK2, sequence (Q14289 whole entry): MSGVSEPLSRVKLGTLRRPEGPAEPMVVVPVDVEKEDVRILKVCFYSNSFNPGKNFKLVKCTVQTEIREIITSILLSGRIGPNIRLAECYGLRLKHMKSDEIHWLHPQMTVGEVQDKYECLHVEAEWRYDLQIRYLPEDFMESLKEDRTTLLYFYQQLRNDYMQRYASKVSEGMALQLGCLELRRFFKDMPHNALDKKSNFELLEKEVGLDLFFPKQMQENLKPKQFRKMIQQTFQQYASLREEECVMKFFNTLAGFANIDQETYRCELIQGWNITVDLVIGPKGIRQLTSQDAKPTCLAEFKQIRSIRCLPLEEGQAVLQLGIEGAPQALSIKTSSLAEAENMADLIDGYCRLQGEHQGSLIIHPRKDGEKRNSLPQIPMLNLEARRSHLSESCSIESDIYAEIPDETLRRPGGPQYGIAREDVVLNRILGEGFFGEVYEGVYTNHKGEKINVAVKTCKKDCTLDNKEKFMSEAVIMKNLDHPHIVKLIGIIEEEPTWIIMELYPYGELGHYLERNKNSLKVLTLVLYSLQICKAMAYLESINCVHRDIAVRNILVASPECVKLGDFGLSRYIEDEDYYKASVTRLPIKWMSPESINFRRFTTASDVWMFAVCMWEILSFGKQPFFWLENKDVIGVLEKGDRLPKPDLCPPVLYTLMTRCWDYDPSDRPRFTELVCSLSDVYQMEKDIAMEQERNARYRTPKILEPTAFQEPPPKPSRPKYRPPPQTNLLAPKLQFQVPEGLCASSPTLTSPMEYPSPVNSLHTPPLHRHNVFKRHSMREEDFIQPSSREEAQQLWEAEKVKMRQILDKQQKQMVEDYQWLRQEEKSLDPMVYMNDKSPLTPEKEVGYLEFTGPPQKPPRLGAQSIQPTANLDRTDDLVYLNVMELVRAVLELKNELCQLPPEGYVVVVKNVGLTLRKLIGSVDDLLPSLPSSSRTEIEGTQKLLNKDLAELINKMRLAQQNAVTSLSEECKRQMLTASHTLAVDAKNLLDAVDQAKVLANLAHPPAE

IC50 [1]: 33 nM
% Inh @ 30 nM Avg ([1]; 30 nM, average): 32%
inhibition of kinase [2]: strongly inhibited
IC50 [3]: 33 nM
inhibition at 0.03 µM ([3]; 30 nM, average, read-out: % Inh @ 30 nM Avg): 54%
inhibition of kinase [4]: strongly inhibited
inhibition of kinase [5]: strongly inhibited
inhibition of kinase [6]: strongly inhibited
SMILES: O=C(Nc1ccc(F)nc1)C1CC(O)CN1c1nc2c(c(Nc3cc(C4CC4)[nH]n3)n1)CCC2 (racemic) [Compound 10a, (2S,4R)-1-(4-(5-cyclopropyl-1H-pyrazol-3-ylamino)-6,7-dihydro-5H-cyclopenta[d]pyrimidin-2-yl)-N-(6-fluoropyridin-3-yl)-4-hydroxypyrrolidine-2-carboxamide]
Levels of phosphorylated AKT in treated cells (pAKT/actin) ([7]; 0.1 nM compound): 2.28
p-AKT relative to levels with 0.1 nM compound ([7]; 0.1 nM): 1.0
Normalized phosphorylated AKT (relative to actin) levels relative to 0.1 nM compound treatment ([7]; 0.1 nM): 1.0
pAKT relative to 0.1 nM compound ([7]; 0.1 nM): 1.00
Levels of phosphorylated AKT in treated cells (pAKT/actin) ([7]; 1 nM compound): 0.54
p-AKT relative to levels with 0.1 nM compound ([7]; 1 nM): 0.2
Normalized phosphorylated AKT (relative to actin) levels relative to 0.1 nM compound treatment ([7]; 1 nM): 0.2
pAKT relative to 0.1 nM compound ([7]; 1 nM): 0.69
Levels of phosphorylated AKT in treated cells (pAKT/actin) ([7]; 10 nM compound): 0.00
p-AKT relative to levels with 0.1 nM compound ([7]; 10 nM): 0.0
Normalized phosphorylated AKT (relative to actin) levels relative to 0.1 nM compound treatment ([7]; 10 nM): 0.0
pAKT relative to 0.1 nM compound ([7]; 10 nM): 0.16
Levels of phosphorylated AKT in treated cells (pAKT/actin) ([7]; 100 nM compound): 0.01
p-AKT relative to levels with 0.1 nM compound ([7]; 100 nM): 0.0
Normalized phosphorylated AKT (relative to actin) levels relative to 0.1 nM compound treatment ([7]; 100 nM): 0.0
pAKT relative to 0.1 nM compound ([7]; 100 nM): 0.01

inhibition of kinase [2]: strongly inhibited
inhibition of kinase [4]: strongly inhibited
inhibition of kinase [5]: strongly inhibited
inhibition of kinase [6]: strongly inhibited
SMILES: O=C(Nc1ccc(F)nc1)C1CC(O)CN1c1nc2c(c(Nc3cc(C4CC4)[nH]n3)n1)CCC2 (racemic) [Compound 10d, 1-(4-(5-cyclopropyl-1H-pyrazol-3-ylamino)-6,7-dihydro-5H-cyclopenta[d]pyrimidin-2-yl)-N-(6-fluoropyridin-3-yl)-4-hydroxypyrrolidine-2-carboxamide]
pAKT relative to 0.1 nM compound ([7]; 1 nM): 0.84
pAKT relative to 0.1 nM compound ([7]; 10 nM): 0.23
pAKT relative to 0.1 nM compound ([7]; 100 nM): 0.01

IC50 [1]: 1400 nM
inhibition at 0.1 µM [8]: < 39%
IC50 [3]: 1300 nM
inhibition at 0.1 µM [9]: < 39%
inhibition at 0.1 µM [10]: > 60%
inhibition at 0.1 µM [11]: < 39%
SMILES: CC(C)c1cc(Nc2nc(N3CCCC3C(=O)N3CCCCC3)nc3c2CCC3)n[nH]1 (stereo not shown) [Compound 73b, (1-(4-(5-isopropyl-1H-pyrazol-3-ylamino)-6,7-dihydro-5H-cyclopenta[d]pyrimidin-2-yl)pyrrolidin2--yl)(piperidin-1-yl)methanone]
